Legend:
[1] = tested on: cisplatin-induced neuropathy; assay: Hot-plate (heated-pad) test of sensory neuropathy after seven cycles of cisplatin with or without NPY; assay type: in vivo, mice
Method: (§1) Cisplatin (Enzo; 10 mg per kg body weight once per week) was used to induce SNS injury. Mice received i.p. injections of cisplatin for 7 weeks as described. The mice were euthanized after 2 weeks after the last injection of cisplatin (for full bone marrow recovery).
(§2) To assess neuroprotection from cisplatin, mice were injected i.p. with NPY (Bachem, H-6375) daily during the 7-week cisplatin treatment period.
For measuring effects of different treatments on sensory responses, a hot-plate test was performed.
A hot plate (Leica) was maintained at 50° C. and each mouse was positioned on the end of the heated surface, first nociception, that is, a time until jumping or paw licking was measured. A cut-off time was set as 60 seconds. For the measurement, the heated surface was cleaned with a detergent and ethanol and a temperature was maintained at 50° C.
Next, control, Lyz2-cre; Y1^fl/fl, or Col1a1-cre; Y1^fl/fl mice were treated with seven cycles of cisplatin for the induction of neuropathy. In some animals, NPY was administered during cisplatin chemotherapy. […]
FIG. 2B illustrates a quantitative analysis result of sympathetic neuropathy (after 2 weeks after the last cisplatin injection) in a control group, Lyz2-cre; Y1^fl/fl or Col1a1-cre; Y1^fl/fl mice treated with cisplatin alone or cisplatin and NPY (n=6-10 mice per group, i.p). […]

[2] = tested on: cisplatin-induced bone marrow injury; assay: Complete blood count 4 weeks after bone marrow transplantation; assay type: in vivo, mice; conditions: for HCT (hematocrit) / Hgb (hemoglobin) / MCH (mean corpuscular hemoglobin) / MCHC (mean corpuscular hemoglobin concentration) / MCV (mean cell volume) / MPV (mean platelet volume) / PLT (platelets) / RBC (red blood cell) / RDW-CV (red cell volume distribution width-coefficient of variation) / WBC (white blood cell): complete blood count 4 weeks after transplantation, groups PBS or cisplatin / PBS or NPY
Text: (§3) The mice were lethally irradiated (10 Gy, two split doses) and injected with 1×10^6 BM from CD45.1^+ (BoyJ) mice. After 4 weeks, the mice were sacrificed, and bone marrow and blood were obtained for analysis.
(§4) Next, to evaluate further whether NPY treatment prevents cisplatin-induced mouse death and injury of BM, bone marrow mononuclear cells (BMNCs) were transplanted into cisplatin-treated mice with or without NPY treatment after lethal irradiation. FIG. 2H illustrates an experimental design for verifying whether NPY protects a Th^+ fiber from cisplatin-induced bone marrow injury and whether to accelerate posttransplant bone marrow recovery.
Table 1 is a diagram illustrating an increase in blood cell recovery in NPY-treated mice after cisplatin treatment. A complete blood count was performed by targeting PBS or cisplatin-treated mice after 4 weeks after transplantation and after NPY treatment.

[3] = tested on: cisplatin-induced sympathetic nervous system (SNS) injury; assay: Quantification of Th+ fibers and nestin-positive and CD31+ endothelial cells in bone marrow after cisplatin with or without NPY; assay type: in vivo, mice
Method: as §1, §2
Next, control, Lyz2-cre; Y1^fl/fl, or Col1a1-cre; Y1^fl/fl mice were treated with seven cycles of cisplatin for the induction of neuropathy. In some animals, NPY was administered during cisplatin chemotherapy. FIG. 2A is an experimental design for determining an effect of the Y1 receptor in the macrophages or osteoblasts in cisplatin-induced neuropathy, after NPY treatment.
Further, FIG. 2E is a diagram illustrating a quantitative analysis of a Th^+ fiber in BM of each group (n=5-6 mice per group).
FIG. 2F is a diagram illustrating the number (n=5-6 mice per group) of nestin-positive and CD31^+ endothelial cells per femoral region of each group.

[4] = tested on: cisplatin-induced bone marrow injury; assay: Bone marrow transplantation after lethal irradiation in cisplatin-treated mice with or without NPY: survival and bone marrow recovery; assay type: in vivo
Method: as §1, §2, §3, §4
FIG. 2I illustrates a survival result of mice of each group (n=10-15 mice per group).
FIG. 2J is a diagram illustrating the number of BMNCs (left side), a percentage of LSK cells (middle), and LT-HSCs (right side) in BM of WT mice treated with PBS, cisplatin or NPY, which are evaluated after 4 weeks after transplanting bone marrow (n=5-6 mice per group).
FIG. 2K illustrates a percentage of nestin-positive and CD31^+ endothelial cells in the femur of each group.

[5] = NPY i.p. daily during 7-week cisplatin treatment, cisplatin-treated control or Col1a1-cre, Y1fl/fl mice

Compound	sensory neuropathy (hot-plate latency) ([1]; 2 weeks after the last injection, cisplatin 10 mg per kg i.p. once per week for 7 weeks)	HCT (hematocrit) [2] [%]	Hgb (hemoglobin) [2] [g/dL]	MCH (mean corpuscular hemoglobin) [2] [pg]	MCHC (mean corpuscular hemoglobin concentration) [2] [g/dL]	MCV (mean cell volume) [2] [fL]	MPV (mean platelet volume) [2] [fL]	PLT (platelets) [2] [m/mm^3]	RBC (red blood cell) [2] [m/mm^3]	RDW-CV (red cell volume distribution width-coefficient of variation) [2] [%]	WBC (white blood cell) [2] [m/mm^3]	sensory neuropathy (hot-plate latency) [1, 5]	number of nestin-positive and CD31+ endothelial cells [3, 5]	reduced density of Th+ fibers in BM [3, 5]	protection of Th+ fibers and perivascular niche cells ([3]; cisplatin-treated Lyz2-cre, Y1fl/fl mice (no Y1 receptor in macrophages))	numbers of nestin-positive and CD31+ endothelial cells in the femur ([4]; cisplatin-treated mice after transplantation)	bone marrow function after transplantation (BMNCs, LSK cells, LT-HSCs) ([4]; cisplatin-treated mice, 4 weeks after transplanting bone marrow)	mouse survival ([4]; cisplatin-treated mice, lethal irradiation and BMNC transplantation)	blood cell recovery ([2]; NPY-treated mice after cisplatin treatment, 4 weeks after transplantation)
N.N.[Cl][Pt][Cl] [Cisplatin, cisplatin, reference compound]	had sensory neuropathy	53.5 ± 6.1	12.8 ± 0.8	17.1 ± 0.8	27.0 ± 4.2	66.1 ± 5.2	11.3 ± 2.3	165.7 ± 42.4	6.1 ± 0.8	19.4 ± 0.3	2.2 ± 0.4								
neuropeptide Y [NPY]		49.5 ± 9.3	14.4 ± 0.9	17.35 ± 1.4	33.2 ± 7.6	58.2 ± 8.8	11.4 ± 2.8	219.3 ± 65.8	8.4 ± 0.4	19.4 ± 0.8	5.3 ± 0.4	improved	improved	improved	did not show NPY-mediated protection	restored	restored	enhanced	increase

From patent US10543254B2, “Composition containing neuropeptide Y for inhibiting side effects of anticancer agents” (KYUNGPOOK NATIONAL UNIVERSITY INDUSTRY-ACADEMIC COOPERATION …, priority 2014, dated 2020)
